Patent publication US7291734B2, “N-sulfonylaminothiazole” (Novartis AG, priority 2002, dated 2007)

What was measured:
steroid sulfatase [1] = target: T1, steroid sulfatase (Homo sapiens, UniProt P08842); assay: Assay using human skin homogenate (DHEAS cleavage); format: biochemical; design: Frozen specimens of human cadaver skin (about 100 mg per sample) are minced into small pieces; from tissue; host or cells: human cadaver skin, minced, in Triton X-100 buffer; conditions: human cadaver skin homogenate; [3H]DHEAS substrate; 18 hrs at 37° C.
T1 sequence (P08842 22-583): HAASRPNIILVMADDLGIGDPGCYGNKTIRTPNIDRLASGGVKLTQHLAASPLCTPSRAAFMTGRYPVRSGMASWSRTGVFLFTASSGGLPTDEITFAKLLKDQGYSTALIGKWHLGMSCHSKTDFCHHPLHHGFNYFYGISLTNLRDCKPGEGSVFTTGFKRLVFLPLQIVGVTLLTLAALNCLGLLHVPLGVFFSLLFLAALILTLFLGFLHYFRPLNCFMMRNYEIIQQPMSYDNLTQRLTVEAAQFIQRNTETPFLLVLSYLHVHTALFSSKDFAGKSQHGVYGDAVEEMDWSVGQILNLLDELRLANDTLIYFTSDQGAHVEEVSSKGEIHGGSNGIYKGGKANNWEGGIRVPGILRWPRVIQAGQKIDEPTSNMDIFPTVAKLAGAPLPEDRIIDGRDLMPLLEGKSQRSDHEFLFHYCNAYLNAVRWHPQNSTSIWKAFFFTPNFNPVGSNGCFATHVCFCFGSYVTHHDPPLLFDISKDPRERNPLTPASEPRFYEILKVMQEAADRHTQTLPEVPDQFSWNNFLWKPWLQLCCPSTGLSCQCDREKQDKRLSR
Procedure: Frozen specimens of human cadaver skin (about 100 mg per sample) are minced into small pieces (about 1×1 mm) using sharp scissors. The pieces obtained are suspended in ten volumes (w/w) of buffer (20 mM Tris-HCl, pH 7.5), containing 0.1% Triton X-100. Test compounds (e.g. compounds of the present invention or compounds for use in the present invention) are added at graded concentrations from stock solutions in ethanol or DMSO. Second, DHEAS as the substrate is added (1 μC/ml [^3H]DHEAS, specific activity: about 60 Cl/mmol, and 20 μM unlabeled DHEAS). Samples are incubated for 18 hrs at 37° C. At the end of the incubation period, 50 μl of 1 M Tris, pH 10.4 and 3 ml of toluene are added. A 1-ml aliquot of the organic phase is removed and subjected to liquid scintillation counting. The determined dpm-values in the aliquots are converted to nmol of DHEA cleaved per g of skin per hour.

steroid sulfatase [2] = target: T1, steroid sulfatase; assay: Assay of human steroid sulfatase (4-methylumbelliferyl sulfate cleavage, fluorescence); format: biochemical; design: Human placenta is obtained freshly after delivery and stripped of membranes and connective tissues; from tissue; host or cells: human placenta (microsomes, Triton X-100 extract, chromatographically purified); conditions: purified human placental steroid sulfatase; 4-methylumbelliferyl sulfate substrate; 37° C., 1 hour
Procedure: Human placenta is obtained freshly after delivery and stripped of membranes and connective tissues. For storage, the material is frozen at −70° C. After thawing, all further steps are carried out at 4° C., while pH values are adjusted at 20° C. 400 g of the tissue is homogenized in 1.2 l of buffer A (50 mM Tris-HCl, pH 7.4, 0.25 M sucrose). The homogenate obtained is centrifuged at 10,000×g for 45 minutes. The supernatant is set aside and the pellet obtained is re-homogenized in 500 ml of buffer A. After centrifugation, the two supernatants obtained are combined and subjected to ultracentrifugation (100,000×g, 1 hour). The pellet obtained is resuspended in buffer A and centrifugation is repeated. […]
It is known that purified human steroid sulfatase not only is capable to cleave steroid sulfates, but also readily cleaves aryl sulfates such as 4-methylumbelliferyl sulfate which is used in the present test system as an activity indicator. […]
Plates are incubated at 37° C. for 1 hour. […] Fluorescence intensity is determined in a Titertek Fluoroskan II instrument with λex=355 nm and λem=460 nm. […]
[formula] wherein I100 is the intensity observed in the absence of inhibitor and s is a slope factor. Estrone sulfamate is used as a reference compound and its IC50 value is determined in parallel to all other test compounds. […]

Compound	IC50 (steroid sulfatase [1])	IC50 (steroid sulfatase [2])
2-[2-(3,5-Bis-trifluoromethyl-benzenesulfonylamino)-6,7-dihydro-4H-thiazolo-[5,4-c]pyridin-yl]4-trifluoromethyl-benzamide [Example 1]	160 nM	
CC12CCC3c4ccc(OS(N)(=O)=O)cc4CCC3C1CCC2=O (centres unmarked) [estrone sulfamate]		~60 nM
